Assay results published in patent US10052318B2, “Glutamate agents in the treatment of mental disorders” (YALE UNIVERSITY, priority 2005, dated 2018).

Legend:
[1] = tested on: patient with severe, chronic TTM; assay: Case report one: riluzole in trichotillomania and recurrent major depression; type: in vivo, human
[2] = tested on: patients with treatment-resistant depression; assay: Riluzole addition in control group with treatment-resistant depression; details: control group with treatment-resistant depression alone
[3] = tested on: patients with anxiety symptoms; assay: Riluzole addition in patients with anxiety and mood symptoms (HAM-A); type: in vivo, human
[4] = tested on: patient with Trichotillomania; assay: Case report: riluzole addition in trichotillomania; type: in vivo, human
[5] = tested on: transgenic mice expressing cholera toxin subunit in dopamine D1 receptor-expressing limbic cortical cells; details: cited from earlier work; for perseverative (OCD-like) behaviors: baseline behaviors of the transgenic mice
[6] = tested on: glial glutamate uptake transporter; details: Rothstein et al., Nature 2005; cited from earlier work
C57BL/6J mice = assay: Tail suspension test; type: in vivo; details: after 7 days, 1 injection/day, versus saline
[7] = tested on: animal model of Amyotrophic Lateral Sclerosis (ALS); details: by increasing glutamate transport, L-[3H] glutamate uptake into cortical membrane; Rothstein et al. 2005; cited from earlier work
[8] = tested on: patient with SRI-refractory OCD; assay: Case report two: N-acetylcysteine augmentation of fluvoxamine in SRI-refractory OCD; type: in vivo, human
Text: A person presented to our clinic seeking help for persistent and severe OCD symptoms. Diagnosis of OCD was confirmed using the Structured Clinical Interview for DSM-IV Axis I Disorders-Clinician Version. First et al., Structured clinical interview for DSM-IV Axis I Disorders (SCID-I Clinician Version), American Psychiatric Press, Inc., Washington, D.C., 1997. After informed consent, a person was admitted to the Clinical Neuroscience Research Unit of the Abraham Ribicoff Research Facilities (New Haven, Conn.) and treated clinically with an off-label use of NAC augmentation of fluvoxamine. OCD symptoms were followed using weekly Yale-Brown Obsessive-Compulsive Scale (Y-BOCS) ratings. NAC (United States Pharmacia grade and in capsule form) was initiated at a starting dose of 600 mg PO daily and titrated upward to a total daily dose of 3 grams per day over 6 weeks. NAC was continued at the dose of 3 grams per day for an additional seven weeks. Fluvoxamine 300 mg was continued throughout the NAC treatment period. A person remained on the inpatient unit throughout the treatment period and received supportive psychotherapy. […] In fact, they were resistant to implementing behavioral interventions given the past failure of such interventions.

## Nc1nc2ccc(OC(F)(F)F)cc2s1 [Riluzole, riluzole]
[1]; 72 weeks after initiating riluzole, 100 mg twice a day
  urges to pull hair at follow-up: minimal and readily ignored
[1]; at presentation PITS 23, MGH 17, after up-titration of riluzole
  TTM ratings (PITS, MGH Hairpulling Scale): corresponding fall
[1]; before riluzole, on escitalopram 30 mg daily
  HAM-D at presentation: 26
[1]; week 16, riluzole titrated from 50 mg twice a day to 200 mg daily
  HAM-D: 7
[1]; with up-titration of riluzole to 150 mg and then 200 mg daily
  urges to pull hair: vanished entirely
[2]
  HAM-D scores in response to riluzole: significant improvement
[3]; Subjects P3, P5, P6, P7, P11, P12
  reduction in HAM-A scores post study treatment: ≥ 35%
[3]; riluzole 50 mg twice a day
  HAM-A scores for the group over time: significantly improved
  tolerability / adverse effects: well tolerated with no serious adverse effects noted
[3]; thirteen participants, before riluzole
  Mean Pre-Treatment HAM-A: 18.2+/−6.2
[3]; thirteen participants, riluzole 50 mg twice a day added to existing pharmacotherapy
  Mean Post-Treatment HAM-A: 12.8+/−7.2
[4]; A person, riluzole up to 100 mg twice a day
  Trichotillomania symptoms: cessation of Trichotollomania symptoms
[4]; after 6 weeks of riluzole addition to Lexapro 30 mg, 50 mg titrated to 100 mg twice a day
  Reduction in PITS score: 74%
[4]; after 12 weeks of treatment with riluzole
  Reduction in MGH Pulling Scale Score: > 35%

## NS(=O)(=O)c1cccc2c1c([N+](=O)[O-])cc1nc(O)c(O)nc12 [NBQX]
[5]
  perseverative (OCD-like) behaviors: does not affect
[5]; transgenic mice given MK-801
  worsening of OCD-like behaviors induced by MK-801: does not attenuate

## CO/N=C(\C(=O)N[C@@H]1C(=O)N2C(C(=O)O)=C(CSc3nc(=O)c(=O)[nH]n3C)CS[C@H]12)c1csc(N)n1 [Ceftriaxone, ceftriaxone]
[6]
  upregulation of the glial glutamate transporter: upregulated the glial glutamate transporter more so than many other drugs
C57BL/6J mice; C57BL/6J males, 10 animals/group
  decrease in the immobility time: ~20%
C57BL/6J mice
  bouts of immobility: decreased bouts of immobility
  latency: trend for increased latency
[7]
  neuroprotection: neuroprotective

## CC(=O)N[C@@H](CS)C(=O)O [NAC, N-acetylcysteine]
[8]; NAC 600 mg daily titrated to 3 grams per day over 6 weeks, continued seven weeks, fluvoxamine 300 mg
  Y-BOCS score: dramatically decreased
[8]; NAC up to 3 grams per day
  side effects: a few episodes of mild, brief right hand tingling and a single day of xerostomia
[8]; over the course of admission
  routine lab monitoring: no further abnormalities
[8]; two month follow-up visit, same dose of NAC and fluvoxamine
  OCD symptoms at follow-up: remained improved

## C[C@]12N[C@H](Cc3ccccc31)c1ccccc12 [MK-801]
[5]
  perseverative (OCD-like) behaviors: worsen
